Reference: ChEMBL document CHEMBL2157893, “A potent and orally active antagonist (SM-406/AT-406) of multiple inhibitor of apoptosis proteins (IAPs) in clinical development for cancer treatment” (J Med Chem, 2011)
pKd, pKi: −log10 of the molar value. Active and inactive are the calls of the source. The calls are words filed in the database; no cut-off is given here.

Key:
[1] = molecular target: T1, Baculoviral IAP repeat-containing protein 2 (Homo sapiens, UniProt Q13490)
[2] = molecular target: E3 ubiquitin-protein ligase XIAP (Homo sapiens, UniProt P98170); experiment: Binding affinity to His6-tagged human XIAP BIR3 domain expressed in Escherichia coli BL21(DE3) assessed as dissociation constant after 2 to 3 hrs by fluorescence polarization assay
Chain of E3 ubiquitin-protein ligase XIAP (P98170 whole entry, the tested form may be a part): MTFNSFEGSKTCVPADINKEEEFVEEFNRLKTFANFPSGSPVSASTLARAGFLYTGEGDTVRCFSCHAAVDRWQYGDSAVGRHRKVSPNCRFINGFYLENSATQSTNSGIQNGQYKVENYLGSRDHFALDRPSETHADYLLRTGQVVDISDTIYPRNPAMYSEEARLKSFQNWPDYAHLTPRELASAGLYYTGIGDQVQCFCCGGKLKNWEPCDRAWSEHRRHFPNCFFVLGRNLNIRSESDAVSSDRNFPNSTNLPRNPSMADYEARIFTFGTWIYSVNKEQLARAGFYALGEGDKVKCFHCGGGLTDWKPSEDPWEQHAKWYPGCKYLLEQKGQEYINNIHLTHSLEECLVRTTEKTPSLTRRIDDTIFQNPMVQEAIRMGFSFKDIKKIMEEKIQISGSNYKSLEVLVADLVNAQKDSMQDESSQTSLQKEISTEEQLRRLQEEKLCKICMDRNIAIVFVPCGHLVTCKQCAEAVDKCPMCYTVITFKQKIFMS

[3] = molecular target: T1, Baculoviral IAP repeat-containing protein 2; experiment: Binding affinity to human cIAP1 BIR3 domain expressed in Escherichia coli BL21(DE3) assessed as dissociation constant after 2 to 3 hrs by fluorescence polarization assay
[4] = test system: Canis familiaris; experiment: Half life in beagle dog at 10 mg/kg, po; assay type: ADME, organism-based, Canis lupus familiaris; parameters: dose 10 mg/kg, route oral; conditions: in vivo
[5] = test system: Mus musculus; experiment: Oral bioavailability in mouse at 30 mg/kg; assay type: ADME, organism-based; conditions: in vivo
[6] = test system: Rattus norvegicus; experiment: Oral bioavailability in Sprague-Dawley rat at 25 mg/kg; assay type: ADME, organism-based; conditions: in vivo
[7] = test system: Mus musculus; experiment: AUC (0 to t) in mouse at 10 mg/kg, iv; assay type: ADME, organism-based, Plasma; parameters: dose 10 mg/kg, route intravenous; conditions: in vivo
[8] = test system: Canis familiaris; experiment: AUC (0 to t) in beagle dog at 10 mg/kg, po; assay type: ADME, organism-based, Canis lupus familiaris, Plasma; parameters: dose 10 mg/kg, route oral; conditions: in vivo
[9] = test system: Cynomolgus monkey; experiment: AUC (0 to t) in cynomolgus monkey at 5 mg/kg, po; assay type: ADME, organism-based, Macaca fascicularis, Plasma; parameters: dose 5 mg/kg, route oral; conditions: in vivo
[10] = test system: Cynomolgus monkey; experiment: Half life in cynomolgus monkey at 2.5 mg/kg, iv; assay type: ADME, organism-based, Macaca fascicularis; parameters: dose 2.5 mg/kg, route intravenous; conditions: in vivo
[11] = test system: Canis familiaris; experiment: AUC (0 to t) in beagle dog at 5 mg/kg, iv; assay type: ADME, organism-based, Canis lupus familiaris, Plasma; parameters: dose 5 mg/kg, route intravenous; conditions: in vivo
[12] = test system: Cynomolgus monkey; experiment: AUC (0 to t) in cynomolgus monkey at 2.5 mg/kg, iv; assay type: ADME, organism-based, Macaca fascicularis, Plasma; parameters: dose 2.5 mg/kg, route intravenous; conditions: in vivo
[13] = test system: Cynomolgus monkey; experiment: Half life in cynomolgus monkey at 5 mg/kg, po; assay type: ADME, organism-based, Macaca fascicularis; parameters: dose 5 mg/kg, route oral; conditions: in vivo
[14] = test system: Rattus norvegicus; experiment: Half life in Sprague-Dawley rat at 25 mg/kg, po; assay type: ADME, organism-based; parameters: dose 25 mg/kg, route oral; conditions: in vivo
[15] = test system: Rattus norvegicus; experiment: AUC (0 to t) in Sprague-Dawley rat at 25 mg/kg, po; assay type: ADME, organism-based, Plasma; parameters: dose 25 mg/kg, route oral; conditions: in vivo
[16] = test system: Mus musculus; experiment: Half life in mouse at 30 mg/kg, po; assay type: ADME, organism-based; parameters: dose 30 mg/kg, route oral; conditions: in vivo
[17] = test system: Rattus norvegicus; experiment: Half life in Sprague-Dawley rat at 5 mg/kg, iv; assay type: ADME, organism-based; parameters: dose 5 mg/kg, route intravenous; conditions: in vivo
[18] = test system: Canis familiaris; experiment: Oral bioavailability in beagle dog at 10 mg/kg; assay type: ADME, organism-based, Canis lupus familiaris; conditions: in vivo
[19] = test system: Mus musculus; experiment: Half life in mouse at 10 mg/kg, iv; assay type: ADME, organism-based; parameters: dose 10 mg/kg, route intravenous; conditions: in vivo
[20] = test system: Canis familiaris; experiment: Half life in beagle dog at 5 mg/kg, iv; assay type: ADME, organism-based, Canis lupus familiaris; parameters: dose 5 mg/kg, route intravenous; conditions: in vivo
[21] = test system: Cynomolgus monkey; experiment: Oral bioavailability in cynomolgus monkey at 5 mg/kg; assay type: ADME, organism-based, Macaca fascicularis; conditions: in vivo
[22] = test system: Mus musculus; experiment: AUC (0 to t) in mouse at 30 mg/kg, po; assay type: ADME, organism-based, Plasma; parameters: dose 30 mg/kg, route oral; conditions: in vivo
[23] = test system: Mus musculus; experiment: Induction of procaspase-8 processing in human MDA-MB-231 cells xenografted in SCID mouse at 100 mg/kg, po administered as single dose measured after 2 hrs by Western blot analysis; assay type: functional, organism-based; parameters: dose 100 mg/kg
[24] = test system: Mus musculus; experiment: Induction of degradation of cIAP1 in human MDA-MB-231 cells xenografted in SCID mouse at 100 mg/kg, po administered as single dose measured after 16 hrs by Western blot analysis; assay type: functional, organism-based; parameters: dose 100 mg/kg
[25] = test system: MDA-MB-231; experiment: Induction of apoptosis in human MDA-MB-231 cells assessed as activation of caspase-3 activity at 1.5 uM after 12 hrs by Western blot analysis; assay type: functional, cell-based
[26] = test system: MDA-MB-231; experiment: Induction of cell death in human MDA-MB-231 cells at 1 uM by trypan blue exclusion assay; assay type: functional, cell-based; conditions: TDE = time-dependent effect
[27] = test system: Mus musculus; experiment: Induction of PARP cleavage in human MDA-MB-231 cells xenografted in SCID mouse at 100 mg/kg, po administered as single dose measured after 2 hrs by Western blot analysis; assay type: functional, organism-based; parameters: dose 100 mg/kg
[28] = test system: Mus musculus; experiment: Induction of PARP cleavage in human MDA-MB-231 cells xenografted in SCID mouse at 100 mg/kg, po administered as single dose measured after 16 hrs by Western blot analysis; assay type: functional, organism-based; parameters: dose 100 mg/kg
[29] = test system: Mus musculus; experiment: Induction of procaspase-8 processing in human MDA-MB-231 cells xenografted in SCID mouse at 100 mg/kg, po administered as single dose measured after 6 hrs by Western blot analysis; assay type: functional, organism-based; parameters: dose 100 mg/kg
[30] = test system: MDA-MB-231; experiment: Antitumor activity against human MDA-MB-231 cells xenografted in SCID mouse assessed inhibition of tumor growth at 100 mg/kg, po administered daily for 5 days/week for 2 weeks; assay type: functional, organism-based; parameters: dose 100 mg/kg
[31] = test system: MDA-MB-231; experiment: Induction of cell death in human MDA-MB-231 cells incubated for 24 hrs by trypan blue exclusion assay; assay type: functional, cell-based
[32] = test system: MDA-MB-231; experiment: Antitumor activity against human MDA-MB-231 cells xenografted in SCID mouse assessed inhibition of tumor growth at 30 mg/kg, po administered daily for 5 days/week for 2 weeks; assay type: functional, organism-based; parameters: dose 30 mg/kg
[33] = test system: MDA-MB-231; experiment: Antitumor activity against human MDA-MB-231 cells xenografted in SCID mouse assessed inhibition of tumor growth at 10 mg/kg, po administered daily for 5 days/week for 2 weeks; assay type: functional, organism-based; parameters: dose 10 mg/kg
[34] = test system: Mus musculus; experiment: Induction of PARP cleavage in human MDA-MB-231 cells xenografted in SCID mouse at 100 mg/kg, po administered as single dose measured after 6 hrs by Western blot analysis; assay type: functional, organism-based; parameters: dose 100 mg/kg
[35] = test system: Mus musculus; experiment: Induction of degradation of cIAP1 in human MDA-MB-231 cells xenografted in SCID mouse at 100 mg/kg, po administered as single dose measured after 2 hrs by Western blot analysis; assay type: functional, organism-based; parameters: dose 100 mg/kg
[36] = test system: MDA-MB-231; experiment: Induction of apoptosis in human MDA-MB-231 cells assessed as activation of PARP cleavage at 1.5 uM after 12 hrs by Western blot analysis; assay type: functional, cell-based
[37] = test system: MDA-MB-231; experiment: Antitumor activity against human MDA-MB-231 cells xenografted in SCID mouse assessed inhibition of tumor growth at 7.5 mg/kg, iv administered once/week for 2 weeks
[38] = test system: Mus musculus; experiment: Induction of degradation of cIAP1 in human MDA-MB-231 cells xenografted in SCID mouse at 7.5 mg/kg, iv administered as single dose measured after 24 hrs by Western blot analysis; assay type: functional, organism-based; parameters: dose 7.5 mg/kg
[39] = test system: Mus musculus; experiment: Toxicity in human MDA-MB-231 cells xenografted in SCID mouse assessed weight loss at 7.5 mg/kg, iv administered once/week for 2 weeks; conditions: in vivo, 336 h
[40] = test system: Mus musculus; experiment: Induction of PARP cleavage in human MDA-MB-231 cells xenografted in SCID mouse at 7.5 mg/kg, iv administered as single dose measured after 24 hrs by Western blot analysis; assay type: functional, organism-based; parameters: dose 7.5 mg/kg
[41] = test system: Mus musculus; experiment: Induction of procaspase-8 processing in human MDA-MB-231 cells xenografted in SCID mouse at 7.5 mg/kg, iv administered as single dose measured after 24 hrs by Western blot analysis; assay type: functional, organism-based; parameters: dose 7.5 mg/kg

T1 sequence (Q13490 whole entry, the tested form may be a part): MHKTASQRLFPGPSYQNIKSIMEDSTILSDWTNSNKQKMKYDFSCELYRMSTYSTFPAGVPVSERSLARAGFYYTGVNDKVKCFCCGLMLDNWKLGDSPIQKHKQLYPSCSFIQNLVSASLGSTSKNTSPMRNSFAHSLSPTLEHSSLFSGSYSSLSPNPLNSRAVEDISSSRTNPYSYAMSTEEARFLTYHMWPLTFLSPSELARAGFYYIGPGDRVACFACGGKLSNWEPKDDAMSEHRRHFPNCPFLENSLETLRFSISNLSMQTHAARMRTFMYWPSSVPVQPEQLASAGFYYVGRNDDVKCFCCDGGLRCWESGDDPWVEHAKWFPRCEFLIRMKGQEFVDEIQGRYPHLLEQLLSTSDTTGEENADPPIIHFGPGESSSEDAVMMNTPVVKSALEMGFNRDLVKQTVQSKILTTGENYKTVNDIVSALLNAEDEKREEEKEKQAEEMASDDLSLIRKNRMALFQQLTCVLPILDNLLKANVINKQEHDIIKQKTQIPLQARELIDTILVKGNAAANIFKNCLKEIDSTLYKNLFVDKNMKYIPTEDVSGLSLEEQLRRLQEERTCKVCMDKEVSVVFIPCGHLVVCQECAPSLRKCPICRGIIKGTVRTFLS

## CN[C@@H](C)C(=O)N[C@H]1CN(C(=O)CC(C)C)CC[C@H]2CC[C@@H](C(=O)N[C@@H](c3ccccc3)c3cn(CCCCCCCCCCNC(=O)CCCCCNC(=O)CCCC[C@@H]4SC[C@@H]5NC(=O)N[C@@H]54)nn3)N2C1=O
[1]
  pKi: > 9.00

## CN[C@@H](C)C(=O)N[C@H]1CN(C(=O)CC(C)C)CC[C@H]2CC[C@@H](C(=O)N[C@@H](c3ccccc3)c3cn(CCCCCCCCCCNC(=O)c4ccc(-c5c6ccc(=O)cc-6oc6cc(O)ccc56)c(C(=O)O)c4)nn3)N2C1=O
[2]
  pKd: 8.36
[3]
  pKd: 9.15

## CN[C@@H](C)C(=O)N[C@H]1CN(C(=O)CC(C)C)CC[C@H]2CC[C@@H](C(=O)NC(c3ccccc3)c3ccccc3)N2C1=O.Cl
[4]
  t1/2: 27.1 h
[5]
  F: 38%
[6]
  F: 45%
[7]
  AUCt: 3800 ng·h/mL
[8]
  AUCt: 90300 ng·h/mL
[9]
  AUCt: 13500 ng·h/mL
[10]
  t1/2: 6.3 h
[11]
  AUCt: 81600 ng·h/mL
[12]
  AUCt: 17900 ng·h/mL
[13]
  t1/2: 5.4 h
[14]
  t1/2: 1.8 h
[15]
  AUCt: 2300 ng·h/mL
[16]
  t1/2: 2.3 h
[17]
  t1/2: 1.4 h
[18]
  F: 55%
[19]
  t1/2: 3 h
[20]
  t1/2: 16.3 h
[21]
  F: 42%
[22]
  AUCt: 4300 ng·h/mL

## CN[C@@H](C)C(=O)N[C@H]1CN(C(=O)CC(C)C)CC[C@H]2CC[C@@H](C(=O)NC(c3ccccc3)c3ccccc3)N2C1=O
[23]
  Activity: Active
[24]
  Activity: Active
[25]
  Activity: Active
[26]
  Activity: tde
[27]
  Activity: Active
[28]
  Activity: Active
[29]
  Activity: Active
[30]
  TGI: Active
[31]
  Activity: Dose-dependent effect
[32]
  TGI: Active
[33]
  TGI: inactive
[34]
  Activity: Active
[35]
  Activity: Active
[36]
  Activity: Active

## CC(=O)O[C@@]12CO[C@@H]1C[C@H](O)[C@@]1(C)C(=O)[C@H](O)C3=C(C)[C@@H](OC(=O)[C@H](O)[C@@H](NC(=O)OC(C)(C)C)c4ccccc4)C[C@@](O)([C@@H](OC(=O)c4ccccc4)[C@H]21)C3(C)C.O.O.O [DOCETAXEL]
[37]
  TGI: Active
[38]
  Activity: inactive
[39]
  Activity: Toxic
[40]
  Activity: inactive
[41]
  Activity: Active
